Reference: patent US9079888B2, “Compounds as histamine H3 receptor ligands” (Suven Life Sciences Limited, priority 2011, dated 2015)
Structures can show the parent of a compound that is named as a salt. One block for each compound: values may come before it.

Tests used:
[1] = target: Human or Rat Histamine H3 Receptor; assay: Binding assay for human or rat Histamine H3 receptor ([3H] R-α-methylhistamine displacement); details: radioligand [3H] R-α-methylhistamine 3.0 nM; receptor source rat brain frontal cortex or recombinant human cDNA in CHO cells (table does not say which)
Protocol: The reaction was terminated by rapid vacuum filtration onto the glass fiber filters. Radioactivity trapped onto the filters was determined and compared to the control values in order to ascertain any interactions of the test compound(s) with either cloned human or rat receptor binding site.

[2] = Rodent Brain Penetration Study; format: in vivo, Male Wister rats; details: brain / whole blood; Wistar/Male rat, Per Oral, 3 mg/kg, vehicle water; read-out: Brain Penetration Ratio (Cbrain/Cblood)
Protocol: Three animals were housed in each cage. Animals were given water and food ad libitum throughout the experiment, and maintained on a 12 hours light/dark cycle.
New chemical entity (NCE) was dissolved in suitable vehicle and administered orally (3 or 10 mg/kg). […] Blood and brain tissue were collected and brain was homogenized to yield 20% w/v. Blood was stored at 2-8° C. and brain homogenate was frozen at −20° C. until analysis. The concentrations of NCE in blood and brain were quantified using LC-MS/MS method.
Extents of brain-blood ratio were calculated (Cbrian/Cblood)

[3] = system: Male Wister rats; assay: Object Recognition Task Model; format: in vivo; details: rat; for Exploration time mean ± S.E.M, Familiar object / Exploration time mean ± S.E.M, Novel object: choice trial T2 24 h after T1
Protocol: The cognition enhancing properties of compounds of this invention were estimated by using this model.
Male Wister rats (230-280 grams) obtained from N. I. N. (National Institute of Nutrition, Hyderabad, India) was used as experimental animals. Four animals were housed in each cage. Animals were kept on 20% food deprivation before one day and given water ad libitum throughout the experiment and maintained on a 12 hours light/dark cycle. Also the rats were habituated to individual arenas for 1 hour in the absence of any objects.
One group of 12 rats received vehicle (1 mL/Kg) orally and another set of animals received compound of the formula (I) either orally or i.p., before one hour of the familiar (T1) and choice trial (T2).
The experiment was carried out in a 50×50×50 cm open field made up of acrylic. In the familiarization phase, (T1), the rats were placed individually in the open field for 3 minutes, in which two identical objects (plastic bottles, 12.5 cm height×5.5 cm diameter) covered in yellow masking tape alone (a1 and a2) were positioned in two adjacent corners, 10 cms from the walls. After 24 hours of the (T1) trial for long-term memory test, the same rats were placed in the same arena as they were placed in T1 trial. Choice phase (T2) rats were allowed to explore the open field for 3 minutes in presence of one familiar object (a3) and one novel object (b) (Amber color glass bottle, 12 cm high and 5 cm in diameter). Familiar objects presented similar textures, colors and sizes. During the T1 and T2 trial, explorations of each object (defined as sniffing, licking, chewing or having moving vibrissae whilst directing the nose towards the object at a distance of less than 1 cm) were recorded separately by stopwatch. Sitting on an object was not regarded as exploratory activity, however, it was rarely observed.
T1 is the total time spent exploring the familiar objects (a1+a2).
T2 is the total time spent exploring the familiar object and novel object (a3+b).
The object recognition test was performed as described by Ennaceur, A., Delacour, J., 1988, A new one-trial test for neurobiological studies of memory in rats—Behavioural data, Behay. Brain Res., 31, 47-59.

[4] = Rodent Pharmacokinetic Study
Protocol: Male Wistar rats (230-280 grams) obtained from NIN (National Institute of Nutrition, Hyderabad, India) were used as an experimental animal. Three animals were housed in each cage. Animals were kept fasted over night and maintained on a 12 hours light/dark cycle. Three rats were dosed New chemical entity (NCE) orally (3 or 10 mg/kg) and intravenously (1 or 5 mg/kg) on day 0 and day 2.
At each time point blood was collected by jugular vein. Blood was stored at 2-8° C. until analysis. The concentrations of the NCE compound in blood were determined using LC-MS/MS method. Schedule time points: Pre dose 0.08, 0.25, 0.5, 1, 2, 4, 6, 8 and 24 hours after dosing (n=3). The NCE compounds were quantified in blood by partially validated LC-MS/MS method using acetonitrile precipitation technique. […] Study samples were analyzed using calibration samples in the batch and quality control samples spread across the batch.
Pharmacokinetic parameters were calculated by non-compartmental model using software WinNonlin version 5.0.1.

[5] = system: rats; assay: Inhibition of Food Intake; format: in vivo; details: rats fasted 18 hours, oral treatment 60 minutes before feed, active dose
Protocol: The anti-obesity properties of compounds of this invention were estimated using this model.
The experiment consisted of 6 days. The rats were adapted to the 18 hours fasting and 6 hours feeding pattern. The animals were housed in a group of three in the cages provided with the fasting grills and was fasted for 18 hours. After 18 hours fasting the rats were separated and placed individually in the cage. Weighed amount of feed was provided to rats for 6 hours and the feed intake at 1 hour, 2 hours, 4 hours and 6 hours was measured.
Again the rats were regrouped and fasted for 18 hours. The above procedure was followed for 5 days. The average cumulative food intake by the rats on the last 3 days was calculated. Animals were randomized on the basis of their previous three days food intake. On the day of experiment the rats were orally treated test compounds or vehicle. After 60 minutes, the feed was provided to the rats and the food intake at 1 hour, 2 hours, 4 hours and 6 hours was measured. The food intake by the rats treated with test compound was compared with the vehicle treated group by using Unpaired Student's t test.

[6] = male, Wistar, rat, whole blood, iv, 1 mg/kg
[7] = male, Wistar, rat, whole blood, po, 3 mg/kg
[8] = male, Wistar, rat, whole blood, po, 10 mg/kg
[9] = Wistar/Male rat, Intravenous, 1 mg/kg, vehicle water, blood
[10] = Wistar/Male rat, Per Oral, 3 mg/kg, vehicle water, blood
[11] = Wistar/Male rat, per oral 3 mg/kg vs intravenous 1 mg/kg

Ki [1]: 6.4 nM
Structure (SMILES): O=C(CNc1ccc(OC2CCN(C3CCC3)CC2)cc1)N1CCOCC1 [Example 2, 2-[4-(1-Cyclobutylpiperidin-4-yloxy)phenylamino]-1-(morpholin-4-yl)ethanone hydrochloride]

Ki [1]: 14.9 nM | Kp [2]: 2.07 ± 0.07 | AUC(0-t) [4, 6]: 173 ± 60 ng·h/mL | half-life [4, 6]: 33.6 ± 11.4 min | AUC(0-t) [4, 7]: 174 ± 43 ng·h/mL | Cmax [4, 7]: 129 ± 34 ng/mL | Tmax [4, 7]: 0.42 ± 0.14 h | bioavailability [4, 7]: 35 ± 5% | half-life [4, 7]: 87.6 ± 45 min
Structure (SMILES): Cl.Cl.O=C(CN1CCOCC1)Nc1ccc(OC2CCN(C3CCC3)CC2)cc1F [Example 3, N-[4-(1-Cyclobutylpiperidin-4-yloxy)-2-fluorophenyl]-2-(morpholin-4-yl)acetamide dihydrochloride]
Inference ([3]; 3 mg/kg p.o.): Active | Exploration time mean ± S.E.M, Familiar object ([3]; 3 mg/kg p.o.): 6.77 ± 0.44 s | Exploration time mean ± S.E.M, Novel object ([3]; 3 mg/kg p.o.): 12.49 ± 1.59 s

Ki [1]: 14.8 nM
Structure (SMILES): O=C(CN1CCCCC1)Nc1ccc(OC2CCN(C3CCC3)CC2)cc1C(F)(F)F [Example 7, N-[4-(1-Cyclobutylpiperidin-4-yloxy)-2-trifluoromethylphenyl]-2-(piperidin-1-yl) acetamide]

Ki [1]: 8.4 nM
Structure (SMILES): Cc1cc(OC2CCN(C(C)C)CC2)ccc1NC(=O)CN1CCCC1 [Example 10, N-[4-(1-Isopropyl-piperidin-4-yloxy)-2-methylphenyl]-2-(pyrrolidin-1-yl) acetamide]

Ki [1]: 1.9 nM | AUC(0-t) ([4]; male, Wistar, rat, whole blood, iv, 5 mg/kg): 3340 ± 656 ng·h/mL | AUC(0-t) [4, 8]: 1350 ± 569 ng·h/mL | Cmax [4, 8]: 122 ± 55 ng/mL | Tmax [4, 8]: 4 ± 1.76 h | bioavailability [4, 8]: 20 ± 9%
Structure (SMILES): Cc1cc(OC2CCN(C3CCC3)CC2)ccc1NC(=O)CN1CCCC1 [Example 11, N-[4-(1-Cyclobutylpiperidin-4-yloxy)-2-methylphenyl]-2-(pyrrolidin-1-yl) acetamide]

Ki [1]: 7.5 nM
Structure (SMILES): Cc1cc(OC2CCN(C3CCCC3)CC2)ccc1NC(=O)CN1CCCCC1 [Example 12, N-[4-(1-Cyclopentylpiperidin-4-yloxy)-2-methylphenyl]-2-(piperidin-1-yl) acetamide]

Ki [1]: 3.3 nM
Structure (SMILES): Cc1cc(OC2CCN(C3CCC3)CC2)ccc1NC(=O)CN1CCCCC1 [Example 13, N-[4-(1-Cyclobutylpiperidin-4-yloxy)-2-methylphenyl]-2-(piperidin-1-yl) acetamide]
Inhibition of food intake [5]: 30 mg/kg, p.o.

Ki [1]: 4.9 nM
Structure (SMILES): CN(C(=O)CN1CCOCC1)c1ccc(OC2CCN(C3CCC3)CC2)cc1 [Example 14, N-[4-(1-Cyclobutylpiperidin-4-yloxy)phenyl]-N-methyl-2-(morpholin-4-yl) acetamide]

Ki [1]: 4 nM
Structure (SMILES): Cc1cc(OC2CCN(C3CCCC3)CC2)ccc1NC(=O)CN1CCC[C@H]1C [Example 15, N-[4-(1-Cyclopentylpiperidin-4-yloxy)-2-methylphenyl]-2-(R-2-methylpyrrolidin-1-yl) acetamide]

Ki [1]: 2.4 nM
Structure (SMILES): Cc1cc(OC2CCN(C3CCC3)CC2)ccc1NC(=O)CN1CCC[C@H]1C [Example 16, N-[4-(1-Cyclobutylpiperidin-4-yloxy)-2-methylphenyl]-2-(R-2-methylpyrrolidin-1-yl) acetamide]
Inhibition of food intake [5]: ≧30 mg/kg, p.o.

Ki [1]: 6.4 nM | AUC(0-t) [4, 6]: 347 ± 44 ng·h/mL | half-life [4, 6]: 1020 ± 270 min | AUC(0-t) [4, 7]: 838 ± 96 ng·h/mL | Cmax [4, 7]: 67 ± 11 ng/mL | Tmax [4, 7]: 2.67 ± 1.15 h | bioavailability [4, 7]: 81 ± 12% | half-life [4, 7]: 770 ± 149 min
Structure (SMILES): O=C(CN1CCC(O)CC1)Nc1ccc(OC2CCN(C3CCC3)CC2)cc1 [Example 19, N-[4-(1-Cyclobutylpiperidin-4-yloxy)phenyl]-2-(4-hydroxypiperidin-1-yl) acetamide]

Ki [1]: 1.1 nM
Structure (SMILES): O=C(CN1CCCC1)Nc1ccc(OC2CCN(C3CCC3)CC2)cc1 [Example 21, N-[4-(1-Cyclobutylpiperidin-4-yloxy)-phenyl]-2-(pyrrolidin-1-yl) acetamide]
Inhibition of food intake [5]: ≧30 mg/kg, p.o.

Structure (SMILES): CC(C)N1CCC(Oc2ccc(NC(=O)CN3CCOCC3)cc2)CC1 [Example 22, N-[4-(1-Isopropylpiperidin-4-yloxy)-phenyl]-2-(morpholin-4-yl) acetamide]
Ki [1]: 8.3 nM | Inhibition of food intake [5]: 60 mg/kg, p.o. | Inference ([3]; 1 mg/kg p.o.): Active | Exploration time mean ± S.E.M, Familiar object ([3]; 1 mg/kg p.o.): 7.12 ± 1.51 s | Exploration time mean ± S.E.M, Novel object ([3]; 1 mg/kg p.o.): 16.50 ± 2.37 s | AUCt [4, 9]: 340 ± 60 ng·h/mL | AUCt [4, 10]: 850 ± 61 ng·h/mL | Tmax [4, 10]: 0.42 ± 0.14 h | bioavailability [4, 11]: 85 ± 12% | Cmax [4, 7]: 376 ± 27 ng/mL

AUCt [4, 9]: 338 ± 29 ng·h/mL | T1/2 [4, 9]: 1.13 ± 0.02 h | AUCt [4, 10]: 556 ± 111 ng·h/mL | Cmax [4, 10]: 389 ± 29 ng/mL | T1/2 [4, 10]: 1.23 ± 0.53 h | Tmax [4, 10]: 0.50 ± 0.00 h | bioavailability [4, 11]: 55 ± 10%
Structure (SMILES): O=C(CN1CCOCC1)Nc1ccc(OC2CCN(C3CC3)CC2)cc1 [Example 23, N-[4-(1-Cyclopropylpiperidin-4-yloxy)phenyl]-2-(morpholin-4-yl) acetamide]

Ki [1]: 1 nM
Structure (SMILES): CC(C)N1CCCN(CC(=O)Nc2ccc(OC3CCN(C4CCC4)CC3)cc2)CC1 [Example 24, N-[4-(1-Cyclobutylpiperidin-4-yloxy)phenyl]-2-(4-isopropyl[1,4]diazepan-1-yl) acetamide]

Ki [1]: 4.05 nM
Structure (SMILES): O=C(CN1CCOC(CO)C1)Nc1ccc(OC2CCN(C3CCC3)CC2)cc1 (stereo not drawn) [Example 25, N-[4-(1-Cyclobutylpiperidin-4-yloxy)phenyl]-2-(2-hydroxymethylmorpholin-4-yl) acetamide]

Ki [1]: 6.7 nM
Structure (SMILES): O=C(CCN1CCOCC1)Nc1ccc(OC2CCN(C3CCC3)CC2)cc1 [Example 26, N-[4-(1-Cyclobutylpiperidin-4-yloxy)phenyl]-3-(morpholin-4-yl) propionamide]

Ki [1]: 4.1 nM
Structure (SMILES): O=C(CN1CCCCC1)Nc1ccc(OC2CCN(C3CCCC3)CC2)cc1 [Example 27, N-[4-(1-Cyclopentylpiperidin-4-yloxy)phenyl]-2-(piperidin-1-yl) acetamide dihydrochloride]

Ki [1]: 3.8 nM
Structure (SMILES): O=C(CN1CCCC1)Nc1ccc(OC2CCN(C3CCCC3)CC2)cc1 [Example 28, N-[4-(1-Cyclopentylpiperidin-4-yloxy)phenyl]-2-(pyrrolidin-1-yl) acetamide dihydrochloride]

Ki [1]: 1.6 nM
Structure (SMILES): O=C(CN1CCCCC1)Nc1ccc(OC2CCN(C3CCC3)CC2)cc1 [Example 29, N-[4-(1-Cyclobutylpiperidin-4-yloxy)phenyl]-2-(piperidin-1-yl) acetamide]

Ki [1]: 6.6 nM
Structure (SMILES): CC(=O)N(CCN1CCOCC1)c1ccc(OC2CCN(C3CC3)CC2)cc1 [Example 38, N-[4-(1-Cyclopropylpiperidin-4-yloxy)phenyl]-N-[2-(morpholin-4-yl)ethyl] acetamide L(+) tartarate]

Ki [1]: 5.39 nM
Structure (SMILES): CC(=O)N1CCN(CC(=O)Nc2ccc(OC3CCN(C4CCC4)CC3)cc2)CC1 [Example 39, N-[4-(1-Cyclobutylpiperidin-4-yloxy)phenyl]-2-(1-acetylpiperazin-4-yl) acetamide]
